Data on four compounds can be found in US11207337B2, “Co-therapy comprising canagliflozin and phentermine for the treatment of obesity and obesity related disorders” (Janssen Pharmaceutica NV, priority 2015, dated 2021).

One data set relates to C. elegans. The conditions noted are these: BOHB treatment of the worm (C. elegans); Edwards et al. 2014; cited from earlier work.
Data set [1] in a line: 26 week randomized, double-blind, placebo-controlled clinical trial: body weight. The format is in vivo, human. The conditions noted are these: for Absolute Body Weight Change from Baseline at Week 26, LS Mean / Body weight % Change from Baseline at Week 26, LS Mean: MMRM; for Body weight % Change from Baseline at Week 26, LS Mean: overweight or obese non-diabetic adults; for Absolute Body Weight Change from Baseline at Week 26, Diff. of LS Means Minus Placebo / Body weight % Change from Baseline at Week 26, Diff. of LS Means Minus Placebo: placebo-subtracted; for estimated contribution to the weight loss observed at Week 26: share of the weight loss in the co-therapy group. As to the method:
(§1) The safety and efficacy of combination treatment with 300 mg canagliflozin and 15 mg phentermine was investigated in a 26 week, randomized, double-blind, placebo-controlled, parallel group, multi-center study. (Complete study protocol filed and available as STUDY 28431754-OBE2002 on www.clinicaltrials.gov).
(§2) The study began with a 4-week single blind placebo run-in period. […] All subjects were provided with diet and exercise counseling for weight loss (standardized non-pharmacological therapy) and were instructed to follow the diet and exercise program throughout the study.
(§3) The modified intent-to-treat (mITT) analysis set included all randomized subjects who had received at least one dose of study drug. The primary efficacy endpoint was percent change from baseline in body weight at Week 26. The secondary efficacy endpoints included (1) proportion of subjects with weight loss ≥5% at Week 26, (2) absolute change from baseline in SBP ([…]) at Week 26, and (3) absolute change from baseline in body weight at Week 26. The inclusion of canagliflozin 300 mg and phentermine 15 mg as separate treatment groups allowed for a descriptive estimate of relative contribution of the individual components to the observed weight loss in the co-therapy canagliflozin 300 mg/phentermine 15 mg group and provided efficacy and safety data on canagliflozin 300 mg in the non-diabetic, overweight/obese population. Safety analyses included treatment-emergent adverse events (referred to as adverse events in this document), laboratory tests (including chemistry and hematology), and vital signs (blood pressure and pulse rate).
The change from baseline in absolute body weight at Week 26 was analyzed with an MMRM similar to the primary efficacy endpoint.

The nature of data set [2]: 26 week placebo-controlled clinical trial: pulse rate (vital signs). The data set is classed as in vivo, human. The procedure:
as §1, §2, §3

A short description of data set [3]: 26 week placebo-controlled clinical trial: systolic and diastolic blood pressure. The format is in vivo, human. The conditions noted are these: Week 26; for Systolic Blood Pressure Change From Baseline, LS Mean: MMRM; for Diastolic Blood Pressure, Mean change / Diastolic Blood Pressure, Median change / Systolic Blood Pressure, Mean change / Systolic Blood Pressure, Median change: change from baseline, observed; for Systolic Blood Pressure Change From Baseline, Diff. of LS Means Minus Placebo: placebo-subtracted. As to the method: as §1, §2, §3
The reduction in diastolic blood pressure of −1.6 mm Hg (baseline 80 mm Hg) was not statistically significant.

The conditions of data set [4]: metformin on its own, in the diabetic; cited from earlier work.
Where [5] appears, read: Week 26, change from baseline, observed.

In the case of `CC(O)CC(=O)O` (stereo not drawn) [BOHB, beta-hydroxybutyrate], the increase in lifespan in the data set on C. elegans is about 20%.
As for `Cc1ccc([C@@H]2O[C@H](CO)[C@@H](O)[C@H](O)[C@H]2O)cc1Cc1ccc(-c2ccc(F)cc2)s1` [Cana 300 mg, (1S)-1,5-anhydro-1-[3-[[5-(4-fluorophenyl)-2-thienyl]methyl]-4-methylphenyl]-D-glucitol], in data set [1], the “Absolute Body Weight Change from Baseline at Week 26, LS Mean” value is -1.9 kg; the “Body weight % Change from Baseline at Week 26, LS Mean” value is on record as −1.9%; the “Absolute Body Weight Change from Baseline at Week 26, Diff. of LS Means Minus Placebo” value was -1.3 kg; the “Body weight % Change from Baseline at Week 26, Diff. of LS Means Minus Placebo” value is on record as −1.3%. The “estimated contribution to the weight loss observed at Week 26” value in data set [1] is recorded as 18%. Besides, in data set [2] (human, in vivo), the “Pulse Rate, Mean change” value was determined as 1.64 BEATS/MIN; the “Pulse Rate, Median change” value is recorded as 0.83 BEATS/MIN; the “pulse, LS Mean change from baseline (SE)” value was 0.7 (1.0) bpm. In data set [3], the “Systolic Blood Pressure Change From Baseline, LS Mean” value was −3.1 mmHg; the “Diastolic Blood Pressure, Mean change” value is given as −1.32 mmHg; the “Diastolic Blood Pressure, Median change” value was −1.17 mmHg; the “Systolic Blood Pressure, Mean change” value was −3.31 mmHg. In addition, in data set [3], the “Systolic Blood Pressure, Median change” value is recorded as −1.67 mmHg and the “Systolic Blood Pressure Change From Baseline, Diff. of LS Means Minus Placebo” value is −0.4 mmHg.
In the case of `CC(C)(N)Cc1ccccc1` [Phen 15 mg, 2-methyl-1-phenylpropan-2-amine], in data set [1], the “Absolute Body Weight Change from Baseline at Week 26, LS Mean” value was -4.1 kg; the “Body weight % Change from Baseline at Week 26, LS Mean” value is −4.1%; the “Absolute Body Weight Change from Baseline at Week 26, Diff. of LS Means Minus Placebo” value is -3.5 kg; the “Body weight % Change from Baseline at Week 26, Diff. of LS Means Minus Placebo” value is listed as −3.5%. In data set [1], the “estimated contribution to the weight loss observed at Week 26” value is recorded as 50%. In addition, in data set [2] (Week 26), the “pulse, LS Mean change from baseline (SE)” value is 4.1 (1.0) bpm. Moreover, in data set [2] (setting [5]), the “Pulse Rate, Mean change” value amounted to 5.02 BEATS/MIN and the “Pulse Rate, Median change” value amounted to 4.67 BEATS/MIN. For the same compound, in data set [3], the “Systolic Blood Pressure Change From Baseline, LS Mean” value is −1.4 mmHg; the “Diastolic Blood Pressure, Mean change” value is reported as 0.55 mmHg; the “Diastolic Blood Pressure, Median change” value came out at 0.67 mmHg; the “Systolic Blood Pressure, Mean change” value is given as −1.13 mmHg. In data set [3], the “Systolic Blood Pressure, Median change” value was −0.33 mmHg and the “Systolic Blood Pressure Change From Baseline, Diff. of LS Means Minus Placebo” value is listed as 1.3 mmHg.
For `CN(C)C(=N)N=C(N)N` [metformin], the “average improvement in the HbA1c value” in data set [4] is 1.0-1.5%.
